Measurements published in ChEMBL document CHEMBL1130000, “Studies of pyrrolo[1,2-alpha]benzimidazolequinone DT-diaphorase substrate activity, topoisomerase II inhibition activity, and DNA reductive alkylation” (J Med Chem, 1997).

Columns and labels:
Assay type in all cases: functional
Rattus norvegicus = species on record: Rattus norvegicus; experiment: Maximum velocity was determined for rat liver DT diaphorase substrate activity
Nucleic Acid [1] = experiment: Compound tested for its selectivity for incorporation into poly(dA) DNA base pairs
Nucleic Acid [2] = experiment: Compound tested for its selectivity for incorporation into poly(dG) DNA base pairs
Nucleic Acid [3] = experiment: Compound tested for its selectivity for incorporation into poly(dA-dT) DNA base pairs

Row | SMILES | Vmax (Rattus norvegicus) | Selectivity (Nucleic Acid [1]) | Selectivity (Nucleic Acid [2]) | Selectivity (Nucleic Acid [3])
1 | CC(=O)NC1=C(C)C(=O)c2c(nc3n2CCC3OC(C)=O)C1=O (racemic) | 38.6 nM/s | – | – | –
2 | COCC(=O)OC1CCn2c1nc1c2C(=O)C(C)=C(NC(C)=O)C1=O (racemic) | 9.8 nM/s | – | – | –
3 | CC(=O)NC1=C(C)C(=O)c2c(nc3n2CC[C@H]3OC(C)=O)C1=O | 14.6 nM/s | – | – | –
4 | COCC(=O)O[C@@H]1CCn2c1nc1c2C(=O)C(C)=C(NC(C)=O)C1=O | 16.7 nM/s | – | – | –
5 | CC(=O)O[C@H]1CCn2c1nc1c2C(=O)C(C)=C(N2CC2)C1=O (stereo in doubt; (+)) | 83.4 nM/s | 5.9% | – | –
6 | COCC(=O)O[C@H]1CCn2c1nc1c2C(=O)C(C)=C(NC(C)=O)C1=O | 28.2 nM/s | – | – | –
7 | CCCCC1=C(N2CC2)C(=O)c2nc3n(c2C1=O)CCC3OC(C)=O (racemic) | 8.5 nM/s | – | – | –
8 | CCCC(=O)OC1CCn2c1nc1c2C(=O)C(C)=C(NC(C)=O)C1=O (racemic) | 42.3 nM/s | – | – | –
9 | CC(=O)NC1=C(C)C(=O)c2c(nc3n2CC[C@@H]3OC(C)=O)C1=O | 20.4 nM/s | – | – | –
10 | CCCCC1=C(NC(C)=O)C(=O)c2nc3n(c2C1=O)CCC3OC(C)=O (centres undefined) | 15.4 nM/s | – | – | –
11 | CC(=O)O[C@H]1CCn2c1nc1c2C(=O)C(C)=C(N2CC2)C1=O (stereo in doubt; (-)) | 62.6 nM/s | 8.5% | – | –
12 | CC(=O)N[C@H]1CCn2c1nc1c2C(=O)C(C)=C(N2CC2)C1=O | 2.2 nM/s | 32.7% | 12.1% | 38%
13 | CC(=O)NC1=C(C)C(=O)c2c(nc3n2CCC3OC(=O)c2ccccc2)C1=O (racemic) | 27.9 nM/s | – | – | –
14 | CC(=O)OC1CCn2c1nc1c2C(=O)C(C)=C(N2CC2)C1=O (racemic) | 66.5 nM/s | – | – | –
15 | CC(=O)NC1CCn2c1nc1c2C(=O)C(C)=C(N2CC2)C1=O (racemic) | 8.3 nM/s | 41.5% | 8.2% | 28%
16 | CCCCC1=C(NC(C)=O)C(=O)c2nc3n(c2C1=O)CCC3 | 18.1 nM/s | – | – | –
